In publication PMC9779727, “Identification of Novel Artemisinin Hybrids Induce Apoptosis and Ferroptosis in MCF-7 Cells” (International Journal of Molecular Sciences, 2022):

How the values were obtained:
[1] = molecular target: T1, CYP2C19 (Homo sapiens, UniProt P33261); test: CYPs inhibition assay, CYP2C19; format: in vitro ADME; settings: human liver microsomes
T1 construct: from tissue; host or cells: human liver microsomes
Description: (§1) Finally, we evaluated the interaction between the hybrid A8 and five major metabolic enzymes (CYP1A2, CYP2C9, CYP2C19, CYP2D6 and CYP3A4) in the human body. […] It is also one of the directions for our further transformation and optimization.
(§2) Cytochrome P450 inhibition was evaluated in human liver microsomes (0.253 mg/mL) using five […] (CYP1A2, α-Naphthoflavone; CYP2C9, Sulfaphenazole; CYP2C19, Benzylnirvanol; CYP2D6, Quinidine; and CYP3A4, Ketoconazole.) in the presence of compound A8 (10 μM). After preincubation for 10 min at 37 °C, an NADPH-regenerating system was added. After the mixed system was incubated for 15 min at 37 °C, the reaction was stopped by adding 400 μL of cold stop solution (200 ng/mL tolbutamide and 200 ng/mL labetalol in acetonitrile). Then, the mixture was centrifuged, and the supernatant was analyzed by LC-MS/MS.

[2] = system: ovarian cancer SK-OV-3 cells; test: MTT antiproliferation assay, SK-OV-3; format: cell-based, human; settings: 48 h, means ± SD, n = 3
Description: (§3) The target hybrids A1–A15 were screened for their antiproliferation activities against five human cancer cell lines (lung cancer A549 cells, breast cancer MCF-7 and MDA-MB-231 cells, colon cancer HCT116 cells and ovarian cancer SK-OV-3 cells) in vitro by the standard MTT method, and 5-fluorouracil (5-FU) and ART were coassayed as controls. […] Therefore, the most promising hybrid, A8, was chosen for further exploration of the preliminary mechanism of MCF-7 cell antiproliferation.
(§4) Cytotoxicity of test compounds against five different tumor cell lines were evaluated using an MTT assay in vitro. Cells were seeded into 96-well plates at a density of 5 × 10^4 cells per well and stabilized at 37 °C with 5% CO2 for 24 h. Compounds A1–A15, ART and 5-FU were added to each well at various concentrations and then the cells were incubated for 48 h. The MTT solution (100 μL 0.5 mg/mL^−1) was added to each well, and the cells were incubated for another 4 h. Then, 150 μL DMSO was added to each well and the absorbance of samples was measured at 492 nm. The IC50 values were calculated according to Logit method after getting the inhibitory rate.

[3] = molecular target: T2, CYP1A2 (Homo sapiens, UniProt P05177); test: CYPs inhibition assay, CYP1A2; format: in vitro ADME
T2 construct: from tissue; host or cells: human liver microsomes
T2 sequence (P05177 1-516): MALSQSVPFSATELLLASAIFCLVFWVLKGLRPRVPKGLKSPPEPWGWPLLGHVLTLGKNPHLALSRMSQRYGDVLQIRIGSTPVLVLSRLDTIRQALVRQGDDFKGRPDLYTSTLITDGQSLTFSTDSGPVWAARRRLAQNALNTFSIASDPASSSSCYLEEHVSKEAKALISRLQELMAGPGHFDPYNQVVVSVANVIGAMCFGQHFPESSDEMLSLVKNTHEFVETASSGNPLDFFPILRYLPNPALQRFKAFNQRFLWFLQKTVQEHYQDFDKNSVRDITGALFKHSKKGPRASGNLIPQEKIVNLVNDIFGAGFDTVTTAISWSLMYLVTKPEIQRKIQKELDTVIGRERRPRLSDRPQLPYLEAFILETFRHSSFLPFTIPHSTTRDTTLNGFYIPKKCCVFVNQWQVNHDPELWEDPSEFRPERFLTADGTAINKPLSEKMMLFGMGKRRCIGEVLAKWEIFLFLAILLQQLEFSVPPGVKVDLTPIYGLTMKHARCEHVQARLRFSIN
Description: as §1, §2

[4] = system: MCF-7 cells; test: Lipid peroxidation (MDA) detection; format: cell-based, human; settings: MCF-7
Description: We also determined the effect of A8 on the expression of GSH and MDA (lipid peroxidation).
Lipid peroxidation assay kit (Beyotime, Shanghai, China) was used to detect malonaldehyde (MDA), together with GSH level assay, present in samples, as per the manufacturer’s instruction with slight modifications.

[5] = system: Bcl-2; test: Western blotting, Bcl-2 expression; format: cell-based, human; settings: MCF-7, 0, 2.5, 5 and 10 μM, 48 h, GAPDH internal control
Description: Based on the JC-1 staining results, we further analyzed the expression of proteins related to apoptosis using a Western blotting assay with GAPDH as an internal control. […] Then, an excess of cytochrome C can enhance caspase-3 activation to stimulate apoptosis.
MCF-7 cells were seeded at a density of 4 × 10^5 cells per well and treated with various concentrations of compound A8 (0, 2.5, 5 and 10 μM) for 48 h. After this, cells were collected and washed twice with ice-cold DPBS. The pellets were resuspended in a total protein extraction buffer (20 mM HEPES, 350 mM NaCl, 20% glycerol, 1% NP-40, 1 mM MgCl2, 0.5 mM EDTA, 0.1 mM EGTA, 0.1 mM DTT, 0.1 mM PMSF) containing a protease inhibitor cocktail and incubated on ice for 30 min with intermittent mixing. The protein concentration was measured using the Bradford reagent (Bio-Rad Laboratories Inc., Hercules, CA, USA). An equal amount (20 μg) of protein was loaded on 10% polyacrylamide gels and transferred to a nitrocellulose membrane. After blocking with 5% skimmed milk, the membrane was incubated at 4 °C overnight with specific primary antibodies. The membrane was washed and incubated at room temperature for 1 h with secondary antibodies conjugated with horseradish peroxidase (HRP). Finally, the immunoblot was developed for visualization using a chemiluminescence kit. […]

[6] = molecular target: T3, CYP3A4 (Homo sapiens, UniProt P08684); test: CYPs inhibition assay, CYP3A4; format: in vitro ADME
T3 construct: from tissue; host or cells: human liver microsomes
Description: as §1, §2

[7] = system: breast cancer MDA-MB-231 cells; test: MTT antiproliferation assay, MDA-MB-231; format: cell-based, human; settings: 48 h, means ± SD, n = 3
Description: as §3, §4

T3 sequence (P08684 whole entry): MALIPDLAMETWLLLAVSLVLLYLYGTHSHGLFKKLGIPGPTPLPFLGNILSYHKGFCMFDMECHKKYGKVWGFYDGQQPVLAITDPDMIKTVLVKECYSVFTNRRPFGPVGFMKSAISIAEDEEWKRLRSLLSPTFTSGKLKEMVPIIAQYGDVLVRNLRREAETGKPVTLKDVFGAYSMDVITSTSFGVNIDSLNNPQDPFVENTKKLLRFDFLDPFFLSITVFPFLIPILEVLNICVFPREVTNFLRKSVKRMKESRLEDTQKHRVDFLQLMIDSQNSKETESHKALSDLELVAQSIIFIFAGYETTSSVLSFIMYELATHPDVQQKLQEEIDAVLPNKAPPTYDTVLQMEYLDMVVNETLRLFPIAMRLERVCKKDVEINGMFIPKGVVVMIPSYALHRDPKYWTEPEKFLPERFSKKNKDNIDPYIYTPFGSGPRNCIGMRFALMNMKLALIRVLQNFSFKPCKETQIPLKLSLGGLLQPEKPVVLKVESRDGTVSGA
T1 sequence (P33261 whole entry): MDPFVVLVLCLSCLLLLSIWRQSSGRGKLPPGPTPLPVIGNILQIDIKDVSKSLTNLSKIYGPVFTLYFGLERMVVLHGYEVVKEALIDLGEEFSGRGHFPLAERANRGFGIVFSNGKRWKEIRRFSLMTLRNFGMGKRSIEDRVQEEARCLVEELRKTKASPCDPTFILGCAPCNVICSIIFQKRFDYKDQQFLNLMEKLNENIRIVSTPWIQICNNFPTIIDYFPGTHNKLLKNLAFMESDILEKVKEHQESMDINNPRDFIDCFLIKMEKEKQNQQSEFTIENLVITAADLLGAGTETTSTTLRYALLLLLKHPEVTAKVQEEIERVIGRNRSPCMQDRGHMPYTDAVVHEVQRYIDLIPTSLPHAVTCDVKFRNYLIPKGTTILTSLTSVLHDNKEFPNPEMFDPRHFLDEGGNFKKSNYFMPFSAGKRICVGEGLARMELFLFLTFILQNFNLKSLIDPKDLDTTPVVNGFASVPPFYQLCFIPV

With `CC1CCC2C(C)C(OC(=O)CCC(=O)NCc3nnc(Nc4ccc(F)cc4F)o3)OC3OC4(C)CCC1C32OO4` (stereo not drawn) [A8] the “Inhibition at 10 μM (%) CYP2C19” value [1] was 12.3%, the IC50 [2] was 7.15 ± 0.95 µM and the “inhibitory effect on CYP1A2 (in words)” value ([3]; 10 μM) was “moderate inhibitory effect”. For the same molecule, the “Inhibition at 10 μM (%) CYP1A2” value ([3]; human liver microsomes) was 57.1%, the “MDA level (in words)” value [4] was “increased at higher concentrations” and the “expression of Bcl-2 (in words)” value [5] was “significantly downregulated”. The “inhibitory effect on CYP3A4 (in words)” value ([6]; 10 μM) was “moderate inhibitory effect”, the “Inhibition at 10 μM (%) CYP3A4” value ([6]; human liver microsomes) was 55.8% and the IC50 [7] was 5.27 ± 0.02 µM.
